Laboratory results reported in ChEMBL document CHEMBL1154173, “L-proline-catalysed facile green protocol for the synthesis and antimycobacterial evaluation of [1,4]-thiazines” (2009).
Converted amounts (≈) assume the structure as drawn.

system: Mycobacterium tuberculosis; test: Antimycobacterial activity against multidrug resistant Mycobacterium tuberculosis by agar dilution method; type: functional

| Structure (SMILES) | MIC [µM] |
| --- | --- |
| CCOC(=O)C1C(c2ccc(C)cc2)NC(c2ccc(C)cc2)C(C(=O)c2ccc(Cl)cc2)S1(=O)=O (racemic) | 1.48 (≈ 0.779 µg/mL) |
| CCOC(=O)C1C(c2ccc(OC)cc2)NC(c2ccc(OC)cc2)C(C(=O)c2ccc(Cl)cc2)S1(=O)=O (racemic) | 1.4 (≈ 0.781 µg/mL) |
| CCOC(=O)C1C(c2ccc(Cl)cc2)NC(c2ccc(Cl)cc2)C(C(=O)c2ccc(Cl)cc2)S1(=O)=O (racemic) | 5.52 (≈ 3.13 µg/mL) |
| CCOC(=O)C1C(c2ccc([N+](=O)[O-])cc2)NC(c2ccc([N+](=O)[O-])cc2)C(C(=O)c2ccc(Cl)cc2)S1(=O)=O (racemic) | 0.68 (≈ 0.4 µg/mL) |
| CC[C@@H](CO)NCCN[C@@H](CC)CO [ETHAMBUTOL] | 61.2 (≈ 12.5 µg/mL) |
| NNC(=O)c1ccncc1 [ISONIAZID] | 45.6 (≈ 6.25 µg/mL) |
| NC(=O)c1cnccn1 [PYRAZINAMIDE] | 406 (≈ 50 µg/mL) |
| CO[C@H]1/C=C/O[C@@]2(C)Oc3c(C)c(O)c4c(O)c(c(/C=N/N5CCN(C)CC5)c(O)c4c3C2=O)NC(=O)/C(C)=C\C=C\[C@H](C)[C@H](O)[C@@H](C)[C@@H](O)[C@@H](C)[C@H](OC(C)=O)[C@@H]1C [RIFAMPIN] | 3.8 (≈ 3.13 µg/mL) |
